# PubChem BioAssay AID504814 (The Scripps Research Institute Molecular Screening Center, 2011)
# pEC50: −log10 of the molar value. The source made the active and inactive calls.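 The calls were made as follows: active = EC50 of 10 µM or lower; inactive = EC50 above 10 µM.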
# Target: Caspase-7 (Homo sapiens) (UniProt P55210)
# Experiment: activators of human procaspase-7 D3A mutant – biochemical, absorbance, PC-7 D3A triple mutant, powder samples, selectivity assay for procaspase-3 activator project, late-stage follow-up (AID 504814)
# Conditions: recombinant procaspase-7 D3A, Ac-DEVD-pNA absorbance
# Chain of Caspase-7 (Homo sapiens) (P55210 whole entry D23A/D198A/D206A): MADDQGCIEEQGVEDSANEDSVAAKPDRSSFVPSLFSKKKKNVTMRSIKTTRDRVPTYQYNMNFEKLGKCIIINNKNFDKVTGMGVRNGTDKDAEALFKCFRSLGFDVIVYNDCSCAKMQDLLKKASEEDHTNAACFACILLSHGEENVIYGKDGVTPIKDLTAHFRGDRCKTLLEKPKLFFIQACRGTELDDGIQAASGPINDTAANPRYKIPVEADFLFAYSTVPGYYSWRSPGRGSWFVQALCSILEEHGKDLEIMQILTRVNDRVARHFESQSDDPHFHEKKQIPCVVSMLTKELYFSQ
Structure (SMILES),EC50,pEC50
COc1ccccc1Nc1nc2c(C)cccc2cc1C#N,> 85.3 µM (inactive),
C=CCn1c(=NC(=O)c2cc(-c3cccs3)nc3ccccc23)sc2cc(S(N)(=O)=O)ccc21,,5.11
CC(=O)Oc1cccc2c1C(=O)c1c(OC(C)=O)cc(C(=O)O)cc1C2=O,inactive,

# Results, then the compound that gave them:
EC50,pEC50,Structure (SMILES)
> 85.3 µM (inactive),,COC(=O)c1ccccc1NCc1cc(=O)oc2cc(O)c(O)cc12
inactive,,CC(NC(=O)c1cc2cc([N+](=O)[O-])ccc2oc1=O)C1CCCO1 (stereo not given)
